From patent US20140256771A1, “COMPOUNDS THAT MODULATE INTRACELLULAR CALCIUM” (CalciMedica, Inc., priority 2011, published 2014)
Read-outs that look alike come from different tables or passages of the source.

Experiments:
Jurkat cells [1] = details: cited from earlier work
Jurkat cells [2] = details: cited from earlier work; remark: listed apart in the source
STIM1 and Orai1 = STIM1 and Orai1 (Homo sapiens, UniProt Q96D31); details: HEK293 cells co-expressing STIM1 and Orai1; cited from earlier work
Sequence of STIM1 and Orai1 (Q96D31 whole entry, species assumed): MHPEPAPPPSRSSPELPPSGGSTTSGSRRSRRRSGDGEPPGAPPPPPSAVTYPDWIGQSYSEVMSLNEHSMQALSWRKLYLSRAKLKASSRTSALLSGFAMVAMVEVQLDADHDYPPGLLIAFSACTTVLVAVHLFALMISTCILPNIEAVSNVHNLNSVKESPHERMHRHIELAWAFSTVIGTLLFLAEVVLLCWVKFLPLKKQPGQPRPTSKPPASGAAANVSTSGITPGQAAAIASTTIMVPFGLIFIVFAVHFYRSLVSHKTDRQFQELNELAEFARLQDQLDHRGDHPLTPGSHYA

Orai1/STIM1 = molecular target: T1, Orai1/STIM1 (Homo sapiens, UniProt Q96D31); assay: Fluorescence-based assay of store-operated calcium entry in Orai1/STIM1 stable cells; assay type: cell-based; details: HEK-293 cells stably expressing human STIM1 and Orai1, 50% inhibition of Peak-Basal fluo-4 signal, read-out: Orai1/STIM1 (IC50, μmol)
T1 construct: expressed in transfected cells; host or cells: HEK-293
T1 sequence (Q96D31 whole entry): as the sequence (Q96D31 whole entry, species assumed) above
Description: A. Fluorescence-based Assay of Store-Operated Calcium Entry in Orai1/STIM1 Stable Cells.
Cells stably expressing recombinant human STIM1 and Orai1 are generated by transfecting a human Orai1 expression plasmid (pcDNA3.1-Orai1-cmyc) into HEK-293 cells stably overexpressing human STIM1 (Roos et al. 2005 JCB 169(3): 435-445). Colonies of cells stably expressing both STIM1 and Orai1 proteins are selected and then subcloned by limiting dilution. Cells were cultured at 37° C./6% CO2 in complete medium with 10% FBS and appropriate selection markers.
The day prior to performing the assay Orai1/STIM1 stable cells are plated in 50 μL of complete medium at 90-95% confluence in a 384 well plate. Cells are grown at 37° C./6% CO2 overnight. On the day of the assay, 1.5 μM fluo-4-AM (Invitrogen) in complete medium is added to the cells, which are then incubated for 1 hour at RT. Cells are washed once in Ca^2+-free HBSS (Hank's buffered saline solution) and 35 μl of Ca^2+-free HBSS is added to each well. Test compounds are added to wells in a 10 μL Ca^2+-free HBSS solution, prepared at 4.5× the desired final concentration, and incubated for 30 minutes at RT. The initial baseline fluorescence signal is then measured with a FLIPR^384 (Molecular Devices) plate reader. Calcium entry is initiated by adding 5 μl of 10× CaCl2 (10 mM) in HBSS, and changes in cellular fluorescence are measured with the FLIPR^384 plate reader. In each well, the magnitude of the fluorescence signal as a result of calcium entry into the cell is determined by calculating the difference between the peak fluorescence signal measured after calcium addition and the initial baseline fluorescence signal (designated Peak-Basal). IC50 values are typically calculated as the concentration that inhibited 50% of the Peak-Basal signal (Table A).

RBL-2H3 cells = assay: Fluorescence-based assay of store-operated calcium entry in RBL-2H3 cells; assay type: cell-based, rat; details: Rattus norvegicus, RBL-2H3, thapsigargin store depletion, 50% inhibition of Upslope, read-out: RBL-2H3 (IC50, μmol)
Description: B. Fluorescence-based Assay of Store-Operated Calcium Entry in RBL-2H3Cells.
RBL-2H3 cells are obtained from ATCC and maintained in complete medium with 10% FBS at 37° C./6% CO2.
The day prior to performing the assay, RBL-2H3 cells are plated in 50 μL of complete medium in a 384 well plate. Cells are grown at 37° C./6% CO2 overnight and grow to 50-60% confluence by the next day. On the assay day, 1.5 μM Fluo-4-AM dye (Invitrogen) in complete medium is added and incubated for 1 hour at RT. Cells are washed twice in Ca^2+-free HBSS buffer and 35 μL Ca^2+-free HBSS buffer is added to each well. 10 μL of a test compound prepared in a Ca^2+-free HBSS solution at 4.5× of the desired concentration is added to a well and incubated for 5 minutes at RT. 10 μL of thapsigargin prepared in a Ca^2+-free HBSS solution at 5.5× of the desired concentration (5.5 uM) is added to each well and incubated for an additional 25 minutes. The initial baseline fluorescence signal is measured with a FLIPR^384 (Molecular Devices) plate reader. 5 μL of 12× calcium in HBSS (12 mM) is added and changes in cellular fluorescence are measured with the FLIPR^384 plate reader. In each well, the change in the fluorescent signal as a function of time due to calcium entry into the cell is determined by calculating the difference between the fluorescent signal measured 7 seconds after calcium addition and the initial baseline fluorescence signal at time zero (t=0). This parameter is designated Upslope. The IC50 value is calculated as the concentration at which 50% of the Upslope is inhibited.

Compound	IC50 (Orai1/STIM1; Table iv) [µM]	IC50 (RBL-2H3 cells; Table iv) [µM]	IC50 (Orai1/STIM1; Table iii) [µM]	IC50 (RBL-2H3 cells; Table iii) [µM]	also measured
Cc1nnsc1C(=O)Nc1ccc(-n2nc(C(F)(F)F)cc2C(F)(F)F)cc1 [BTP-2]					inhibition of SOCE (Jurkat cells [1]): inhibits; inhibition of proliferation (Jurkat cells [2]): inhibits
NCCOB(c1ccccc1)c1ccccc1 [2-aminoethoxydiphenylborate]					block of store dependent Ca2+ entry (STIM1 and Orai1): completely blocked
Cn1nc(C(F)(F)F)cc1-c1c(F)cc(NC(=O)c2c(F)cccc2F)cc1F	> 1.2	< 0.6			
Cc1ncsc1C(=O)Nc1ccc(-c2cc(C(F)(F)F)nn2C)c(F)c1	< 0.6	< 0.6			
Cc1nc(C(F)(F)F)cn1-c1ccc(NCc2c(F)cc(F)cc2F)cc1F			< 0.6	< 0.6	
Cn1nc(C(F)(F)F)cc1-c1ccc(NCc2c(F)cncc2F)cc1F			< 0.6	< 0.6	
Cn1nc(C(F)(F)F)cc1-c1ccc(NCc2c(F)cncc2F)cc1			< 0.6	< 0.6	
Cc1cc(F)ccc1CNc1ccc(-c2cc(C(F)F)nn2C)c(F)c1			0.6 to 1.2	< 0.6	
CCn1nc(C(F)(F)F)cc1-c1ccc(NCc2c(F)cccc2F)cc1F			0.6 to 1.2	< 0.6	
Cc1cc2c(cc1-c1ccc(NC(=O)c3c(F)cncc3F)cc1)OC(F)(F)O2	> 1.2	< 0.6			
Cn1nc(C(F)(F)F)cc1-c1ccc(NC(=O)c2cncc(F)c2)cc1F	< 0.6	0.6 to 1.2			
Cn1nc(C(F)(F)F)cc1-c1ccc(NCc2ccc(F)cc2F)cc1			< 0.6	< 0.6	
Cc1cnccc1CNc1ccc(-c2cc(C(F)(F)F)nn2C)c(F)c1			0.6 to 1.2	< 0.6	
Cc1nc(C(F)(F)F)cn1-c1ccc(NCc2c(F)ccc(F)c2F)cc1F			< 0.6	< 0.6	
Cc1nn(C(F)F)cc1-c1ccc(NCc2ccccc2F)cc1			0.6 to 1.2	< 0.6	
Cc1nn(C(F)F)cc1-c1ccc(NCc2ccccc2F)cc1F			< 0.6	< 0.6	
Cc1cc(F)ccc1CNc1ccc(-n2nc(C(F)(F)F)cc2C)c(F)c1			0.6 to 1.2	< 0.6	
Cc1nc(C(F)(F)F)cn1-c1ccc(NCc2c(F)cc(F)cc2F)cc1			< 0.6	< 0.6	
Cn1nc(C(F)(F)F)cc1-c1ccc(NCc2c(F)cc(F)cc2F)cc1F			< 0.6	< 0.6	
Cc1ccccc1CNc1ccc(-c2cn(C(F)F)nc2C)c(F)c1			0.6 to 1.2	< 0.6	
Cc1cccc(F)c1C(=O)Nc1ccc(-c2cc(C(F)(F)F)nn2C)c(F)c1	< 0.6	< 0.6			
Cn1nc(C(F)(F)F)cc1-c1ccc(NC(=O)c2c(Cl)cnn2C)cc1	< 0.6	< 0.6			
Cc1cc2c(cc1-c1ccc(NCc3snnc3F)cc1)OC(F)(F)O2			0.6 to 1.2	< 0.6	

Compound	IC50 (Orai1/STIM1; Table iv) [µM]	IC50 (RBL-2H3 cells; Table iv) [µM]	IC50 (Orai1/STIM1; Table iii) [µM]	IC50 (RBL-2H3 cells; Table iii) [µM]	also measured
Cn1nc(C(F)(F)F)cc1-c1ccc(NCc2ccncc2F)cc1F			< 0.6	< 0.6	
Cc1cc2c(cc1-c1ccc(NC(=O)c3c(C)cccc3F)cc1F)OC(F)(F)O2	> 1.2	< 0.6			
Cc1cc(C(F)(F)F)nn1-c1ccc(NCc2c(F)cc(F)cc2F)cc1			< 0.6	< 0.6	
Cc1cc(C(F)(F)F)nn1-c1ccc(NCc2c(F)ccc(F)c2F)cc1			< 0.6	< 0.6	
Cc1cc(C(F)(F)F)nn1-c1ccc(NC(=O)c2ccccc2F)cc1	< 0.6	< 0.6			
Cn1nc(C(F)(F)F)cc1-c1ccc(NCc2ccccc2F)cc1F			< 0.6	< 0.6	
Cc1cccc(F)c1C(=O)Nc1ccc(-c2cn(C(F)F)nc2C)c(F)c1	< 0.6	< 0.6			
Cc1nc(C(F)(F)F)cn1-c1ccc(NCc2ccccc2F)cc1F			< 0.6	< 0.6	
Cn1nc(C(F)(F)F)cc1-c1ccc(NC(=O)c2c(F)cncc2F)cc1	< 0.6	< 0.6			
Cc1nc(C(F)(F)F)cn1-c1ccc(NC(=O)c2c(F)cc(F)cc2F)cc1F	> 1.2	< 0.6			
Cn1nc(C(F)(F)F)cc1-c1ccc(NCc2c(F)cccc2F)cc1F			< 0.6	< 0.6	
CCn1nc(C(F)(F)F)cc1-c1ccc(NCc2c(F)cccc2F)cc1			< 0.6	< 0.6	
Cc1cc2c(cc1-c1ccc(NCc3c(F)cccc3F)cc1)OC(F)(F)O2			> 1.2	< 0.6	
CCn1nc(C(F)(F)F)cc1-c1ccc(NCc2c(F)cc(F)cc2F)cc1F			0.6 to 1.2	< 0.6	
Cc1cc2c(cc1-c1ccc(NCc3c(F)cncc3F)cc1F)OC(F)(F)O2			0.6 to 1.2	< 0.6	
Cc1nc(C(F)(F)F)cn1-c1ccc(NCc2ccccc2F)cc1			< 0.6	< 0.6	
Cc1cc(F)ccc1C(=O)Nc1ccc(-n2cc(C(F)(F)F)nc2C)c(F)c1	> 1.2	< 0.6			
Cn1nc(C(F)(F)F)cc1-c1ccc(NC(=O)c2c(F)cccc2F)cc1F	< 0.6	< 0.6			
Cc1nn(C(F)F)cc1-c1ccc(NC(=O)c2c(F)ccc(F)c2F)cc1	< 0.6	< 0.6			
Cc1cc(F)ccc1C(=O)Nc1ccc(-n2nc(C(F)(F)F)cc2C)c(F)c1	0.6 to 1.2	< 0.6			
Cc1nc(C(F)(F)F)cn1-c1ccc(NC(=O)c2c(F)cccc2F)cc1	> 1.2	< 0.6			
Cc1nc(C(F)(F)F)cn1-c1ccc(NC(=O)c2ccccc2F)cc1	0.6 to 1.2	< 0.6			
Cn1nc(C(F)(F)F)cc1-c1ccc(NCc2c(F)ccc(F)c2F)cc1			< 0.6	< 0.6	
